Measured values published in patent US12466832B2, “Monohydrate and crystalline forms of 6-[(3S,4S)-4-methyl-1-(pyrimidin-2-ylmethyl)pyrrolidin-3-yl]-3-tetrahydropyran-4-yl-7H-imidazo[1,5-a]pyrazin-8-one” (Cardurion Pharmaceuticals, Inc., priority 2018, dated 2025).
Converted amounts (≈) assume the structure as drawn.

What was measured:
Assay type in all cases: physicochemical
[1] = pH profiling solubility experiments; conditions: 24 hours
Protocol: Procedure: pH profiling solubility experiments were performed on MH1 and MH2. Solubility was determined in singlicate by suspending sufficient compound in relevant media (1.00 ml) to give a maximum final concentration as shown in the Table 17.
The suspensions were equilibrated at 25° C., on a Heidolph plate shaker set to 750 rpm for 24 hours. Samples were pH adjusted as required using 0.5M/1M HCl and 0.2M NaOH to within 0.1 of the desired pH unit (where possible). The pHs of the saturated solutions were measured (where applicable) and an appearance was recorded. The suspensions were filtered through a glass fibre C filter (particle retention […]) and diluted appropriately. Quantitation was by HPLC with reference to a standard solution of approximately 0.15 mg/ml in DMSO. Different volumes of the standard, diluted and undiluted sample solutions were injected. The solubility was calculated using the peak areas determined by integration of the peak found at the same retention time as the principal peak in the standard injection.

[2] = Water activity experiments (slurries, XRPD)
Protocol: MH1 (30.0 mg) was weighed into HPLC vials and placed in a vacuum oven to dry over the weekend. All samples were then placed in a desiccator prior to use to ensure dryness. Solvent ([…]) was added and slurries agitated at either 25° C. or 5° C. Further MH1 was added to any solutions formed to return to a slurry. Ethyl acetate and methyl acetate were both dried prior to use. After four days, the samples were analysed by XRPD with minimum exposure to ambient conditions.
Selected samples were also characterised after standing at ambient for 2 days by XRPD, 1H NMR, TGA and DSC.

[3] = Variable temperature XRPD (VT XRPD)
Protocol: For variable temperature (VT) experiments the samples were prepared and analysed in an Anton Paar chromed sample holder. A heating/cooling rate of 10° C./min was used with a 2 min isothermal hold before the measurement started. The measurement parameters are as per the standard screening data collection method (detailed above). Measurements were taken at the following temperatures: 25, 50, 75, 100, 160, and 25° C. The sample was then reanalyzed by XRPD after 1 h to check for complete rehydration.
MH1 was analysed at 25, 50, 75, 100, 160 and 25° C. (10° C./min heating rate and a 2 min wait before the measurement started) on the Empyrean. The sample was then reanalysed by XRPD after 10 and 20 min to check for rehydration.
(§1) Procedure: A second batch of MH2 material was prepared using the same procedure. This sample was then analysed by VTXRPD and by XRPD under vacuum.

[4] = XRPD under vacuum
Protocol: For vacuum experiments the samples were prepared and analysed in an Anton Paar chromed sample holder. The measurement parameters are as per the standard screening data collection method (detailed above), at 25° C. with no vacuum (I2). A vacuum of around 50 mbar was then applied and the sample measured every 5 min until the anhydrate pattern was obtained for three consecutive measurements (to ensure complete dehydration, up to sample I8). The vacuum was then released and the sample analysed every 5 min for 6 measurements (until sample I22). The sample was then reanalyzed by XRPD after 1 h to check for complete rehydration.
MH1 was analysed at 25° C. with no vacuum. A vacuum of around 50 mbar was then applied and the sample measured every 5 min until the anhydrate pattern was obtained for three consecutive measurements (to ensure complete dehydration). The vacuum was then released and the sample analysed every 5 min for 6 measurements before the front of the sample stage was removed.
as §1

[5] = 0.5% water/EtOAc, Aw = 0.3, four days
[6] = 0.8% water/MeOAc, Aw = 0.4, four days
[7] = 1% water/EtOAc, Aw = 0.5, four days
[8] = 1.5% water/EtOAc, Aw = 0.6, four days
[9] = 2% water/EtOAc, Aw = 0.7, four days
[10] = 2.7% water/EtOAc, Aw = 0.8, four days
[11] = 7.5% water/MeOAc, Aw = 0.9, four days
[12] = EtOAc, Sieves, slurry four days

C[C@@H]1CN(Cc2ncccn2)C[C@H]1c1cn2c(C3CCOCC3)ncc2c(=O)[nH]1 [MH1, 6-[(3S,4S)-4-methyl-1-(pyrimidin-2-ylmethyl)pyrrolidin-3-yl]-3-tetrahydropyran-4-yl-7H-imidazo[1,5-a]pyrazin-8-one]
Solubility ([1]; media pH 1.2, 25° C., pH not maintained, final pH 5.02 (MH1-A), 6.63 (MH2-A)): >275 mg/mL
Solubility ([1]; media pH 4.0, 25° C., listed as MH1-B): >106 mg/mL
Solubility ([1]; media pH 6.5, 25° C., listed as MH1-C): >164 mg/mL
Solubility ([1]; media pH 7.5, 25° C., listed as MH1-D): 62 mg/mL (≈ 157 mM)
Results for 5° C. (form by XRPD) [2, 5]: MH1
Results for 25° C. (form by XRPD) [2, 5]: MH1
Results for 5° C. (form by XRPD) [2, 6]: MH1
Results for 25° C. (form by XRPD) [2, 6]: MH1
Results for 5° C. (form by XRPD) [2, 7]: New Form
Results for 25° C. (form by XRPD) [2, 7]: MH1
Results for 5° C. (form by XRPD) [2, 8]: New Form
Results for 25° C. (form by XRPD) [2, 8]: MH1
Results for 5° C. (form by XRPD) [2, 9]: New Form
Results for 25° C. (form by XRPD) [2, 9]: New Form
Results for 5° C. (form by XRPD) [2, 10]: New Form
Results for 25° C. (form by XRPD) [2, 10]: New Form
Results for 5° C. (form by XRPD) [2, 11]: New Form
Results for 25° C. (form by XRPD) [2, 11]: New Form
Results for 5° C. (form by XRPD) [2, 12]: MH1
Results for 25° C. (form by XRPD) [2, 12]: MH1
TGA post VT XRPD mass loss [3]: 3.2%
Form by VT XRPD upon heating ([3]; 75° C.): fully anhydrous
Form by VT XRPD after cooling back ([3]; re-cooled to 25° C.): peaks corresponding to MH1 are present
TGA post vacuum XRPD mass loss [4]: 3.4%
Time to fully hydrated by XRPD after ambient air admitted ([4]; after vacuum released and front of sample stage taken off): 15 min
Time under vacuum to conversion to the anhydrate by XRPD ([4]; vacuum of around 50 mbar, 25° C.): 10 min
